{"source": "patent US20190269705A1", "about": "“METHODS AND MATERIALS FOR TREATING GRAFT VERSUS HOST DISEASE” (Regents of the University of Minnesota, priority 2017, published 2019)", "key": {"[1]": {"test_system": "stimulated T cells", "assay": "Oxygen Consumption Rate (Seahorse) of stimulated CD4 T cells", "assay_type": "cell-based, mouse", "settings": "CD4 cells stimulated on CD3/CD28; 1 μM CB839, 5 μM UK5099 injected separately or in combination", "method": "Experiments were carried out on Agilent Seahorse XF96 bioanalyzer (Agilent). Briefly, wild type CD4+ cells were isolated as previous and activated for 3 days on CD3/CD28 as previously described, or skewed to Th1 and Th17 subsets as described above. T cells were spun onto XF96 Cell-Tak (BD Bioscience, Cat #: 354240) coated plates and rested in Seahorse XF RPMI 1640 media supplemented with glutamine, sodium pyruvate, and glucose. For immediate metabolic response, CB839 and UK5099 were injected separately or in combination, and OCR and ECAR measured.\nExperiments were carried out on Agilent Seahorse XF96 bioanalyzer (Agilent). Briefly, wild type CD4+ cells were isolated as previous and activated for 3 days on αCD3/CD28 coated plates as previously described, or skewed to Th1 and Th17 subsets as described above. T cells were isolated and spun onto XF96 Cell-Tak (BD Bioscience, Cat #: 354240) coated plates and rested in Seahorse XF RPMI 1640 media supplemented with glutamine, sodium pyruvate, and glucose. For immediate metabolic response, 1 μM CB839 and 5 μM UK5099 (Cat #: PZ0160-5MG) were injected separately or in combination, and OCR and ECAR measured. For activation response, 1 uM CB839 was injected into IL-7 maintained naïve CD4+ T cells in seahorse medium and allowed to incubate for 20 minutes, followed by soluble αCD3/CD28 injection."}, "[2]": {"test_system": "Th1 cells", "assay": "CD4 T cells in Th1 skewing conditions, flow cytometry"}, "[3]": {"test_system": "Th17 cells", "assay": "CD4 T cells in Th17 skewing conditions, flow cytometry"}, "[4]": {"test_system": "cGVHD mice", "assay": "In vivo chronic graft versus host disease (cGVHD) treatment", "design": "species or system mouse", "settings": "treatment Day 28-56 after transplant; for pulmonary function: DON 1.6 mg/kg EOD IP, metformin 150 mg/kg daily IP", "method": "Induction of Graft vs Host Disease (cGVHD) was performed as described elsewhere (see, e.g., Panoskaltsis-Mortari et al., 2007 Am J Respir Crit Care Med. 176(7):713-723). Briefly, mice were lethally irradiated the day before bone marrow (BM) transplant. Mice were dosed with cyclophosphamide (Cytoxan, Bristol Myers Squibb, Seattle Wash.) at 120 mg/kg/day on days −3 and −2. Recipient irradiated mice were transplanted via caudal vein with 10×10^6 T-cell depleted allogeneic marrow with 73.5×10^3 purified splenic T cells from WT or GLS KO mice, or control (no CD4+ T cells). Mice were assessed for lung elasticity, resistance, and compliance at Day 28 by whole body plethysmography using the Flexivent system (Scireq, Montreal, PQ, Canada). Histological assessment of GVHD was assessed as described elsewhere (see, e.g., Blazar et al., 1998 Blood 92(10):3949-3959).\n6-Diazo-5-Oxo-L-Norleucine (DON) was administered to mice conditioned with cyclophosphamide (Cytoxan, Bristol Myers Squibb, Seattle Wash.) and total body irradiation.\nTo determine if inhibiting GLS can improve cGVHD, DON (with or without metformin) was administered to mice that were transplanted with WT T cell depleted bone marrow with WT purified splenic T cells beginning on day 28 after transplant."}, "[5]": {"settings": "Th1, CB839 + 1.5 mM cell-permeable α-KG analog"}, "[6]": {"settings": "Th17, CB839 + cell-permeable α-KG analog"}}, "note": "“Also recorded” adds a separate entry of the source."}
{"smiles": "N#C/C(=C\\c1cn(-c2ccccc2)c2ccccc12)C(=O)O", "note": "[UK5099]", "values": [{"measurement": "oxygen consumption (T cell respiration)", "setting": "[1]", "value": "neither UK5099 nor CB839 were sufficient on their own to reduce T cell respiration; also recorded: neither UK5099 nor CB839 were sufficient to reduce T cell respiration alone"}]}
{"smiles": "CCOC(=O)CCNc1cc(N2CCc3ccccc3CC2)nc(-c2ccccn2)n1", "note": "[GSKJ4]", "values": [{"measurement": "cytokine production", "setting": "[2]; Th1, day five, JMJD3 inhibitor", "value": "increased cytokine production"}, {"measurement": "cytokine production", "setting": "[3]; Th17, day five, JMJD3 inhibitor", "value": "increased cytokine production in Th1 but not Th17 cells"}]}
{"smiles": "[N-]=[N+]=CC(=O)CC[C@H](N)C(=O)O", "note": "[DON, 6-Diazo-5-Oxo-L-Norleucine]", "values": [{"measurement": "GC B cell frequency", "setting": "[4]", "value": "decreased GC B cell frequency; also recorded: decrease GC B cell frequencies; also recorded: reduced GC B cells"}, {"measurement": "TFH frequency", "setting": "[4]", "value": "increased TFH frequency"}, {"measurement": "TFR frequencies", "setting": "[4]", "value": "increased TFR frequencies"}, {"measurement": "TFR:TFH ratios", "setting": "[4]", "value": "improved TFR:TFH ratios"}, {"measurement": "percentage of lymphocytes", "setting": "[4]", "value": "reduced the percentage of lymphocytes; also recorded: reduces lymphocytes"}, {"measurement": "pulmonary function", "setting": "[4]", "value": "improve pulmonary functions"}]}
{"smiles": "CO[C@H]1C[C@@H]2CC[C@@H](C)[C@@](O)(O2)C(=O)C(=O)N2CCCC[C@H]2C(=O)O[C@H]([C@H](C)C[C@@H]2CC[C@@H](O)[C@H](OC)C2)CC(=O)[C@H](C)/C=C(\\C)[C@@H](O)[C@@H](OC)C(=O)[C@H](C)C[C@H](C)/C=C/C=C/C=C/1C", "note": "[rapamycin]", "values": [{"measurement": "effect on control Th1 cells", "setting": "[2]; rapamycin added on day 3 after activation", "value": "no effect"}]}
{"smiles": "CN(C)C(=N)N=C(N)N", "note": "[metformin]", "values": [{"measurement": "pulmonary function", "setting": "[4]", "value": "improved pulmonary function"}]}
{"smiles": "COC(=O)CCC(=O)C(=O)OC", "note": "[DMaKG, dimethyl-2-oxoglutarate]", "values": [{"measurement": "IFNγ production of CB839-treated Th1 cells", "setting": "[2]; [5]", "value": "rectified"}, {"measurement": "Tbet expression of CB839-treated Th1 cells", "setting": "[2]; [5]", "value": "rectified"}, {"measurement": "IFNγ production of CB839-treated Th1 cells", "setting": "[2]; Th1, CB839 + 1.5 mM cell-permeable α-KG analog, listed as DM2OG", "value": "reduced IFNγ production of CB839-treated to control levels"}, {"measurement": "cytokine production in Th1 cells, by itself", "setting": "[2]; Th1, α-KG analog alone", "value": "did not reduce cytokine production"}, {"measurement": "IL17 production of CB839-treated Th17 cells", "setting": "[3]; [6]", "value": "unchanged or further decreased"}, {"measurement": "RORγt of CB839-treated Th17 cells", "setting": "[3]; [6]", "value": "unchanged or further decreased"}]}
{"smiles": "CC(=O)N[C@@H](CS)C(=O)O", "note": "[NAC, N-acetyl cysteine]", "values": [{"measurement": "IFNγ secretion", "setting": "[2]; Th1, NAC alone", "value": "decreasing IFNγ secretion"}, {"measurement": "production of IFNγ", "setting": "[2]; Th1, NAC combined with CB839", "value": "did not, however, increase"}, {"measurement": "H3K27 trimethylation", "setting": "[2]; Th1 cells + NAC", "value": "no effect"}, {"measurement": "H3K27 trimethylation", "setting": "[3]; GLS-deficient (CB839) Th17 cells + NAC", "value": "restored"}, {"measurement": "expression of IL17", "setting": "[3]; Th17, NAC alone", "value": "modestly reduced"}, {"measurement": "expression of RORγt", "setting": "[3]; Th17, NAC alone", "value": "modestly reduced"}, {"measurement": "expression of RORγt", "setting": "[3]; Th17, NAC combined with CB839", "value": "partially restored to control levels"}, {"measurement": "production of IL17", "setting": "[3]; Th17, NAC combined with CB839", "value": "partially restored to control levels"}]}
